According to patent publication US9980951B2, “Image guided therapy for cancer” (UNIVERSITY OF IOWA RESEARCH FOUNDATION, priority 2015, dated 2018):
Several values for one entry are separate records, joined by “and”; a condition that tells them apart may be missing. Equal entries are not always repeated.

Assays:
[1] = tested on: normal human fibroblasts (NHFs); experiment: Confocal microscopy, mitochondrial accumulation and colocalization with Mito Tracker Red; assay type: cell-based; settings: 1 μM, 3 h
Method: (§1) Confocal microscopy was used to determine that 10-TPVP preferentially accumulates in the mitochondria of melanoma cells and fluoresces upon aggregation in mitochondrial membranes of melanoma cells relative to nonmalignant cells (FIG. 1). […] NHF cells have a basal level of 10-TPVP accumulation, supporting the hypothesis that TPVP derivatives preferentially accumulate by targeting the hyperpolarized mitochondrial membrane (FIG. 1; Column II).
(§2) Experiments were performed using human metastatic BRAFV600E mutant A375 (ATCC CRL-1619) human melanoma cells, metastatic BRAFV600E mutant SK-Mel-3 (ATCC HTB-69) human melanoma cells isolated from a lymph node metastasis, and nonmetastatic normal human fibroblasts (NHFs) provided by the Coriell Institute (AG13442). All cells were cultured at 21% O2 at 37° C. in a humidified 5% CO2 incubator. Cells were detached with 0.25% trypsin-EDTA. A375 and NHF cells were cultured in high-glucose DMEM medium supplemented with 1% PenStrep and 10% FBS. SK-Mel-3 cells were cultured in high-glucose McCoy's 5A medium supplemented with 1% PenStrep and 15% FBS. All medium components were purchased from Gibco.
(§3) A375, SK-Mel-3, and NHF cells were cultured at a density of 2.5×104, 5×104, or 7.5×104, respectively, on a 4 well glass chamber slide for 24 h prior to exposure to test compounds. […]

[2] = tested on: normal human fibroblasts (NHFs); experiment: DHE oxidation; assay type: cell-based; settings: 10 μM, 1 h
Description: (§4) Oxidation-sensitive dihydroethidium (DHE) was used to determine if mitochondrial-accumulated TPVP derivatives alter the oxidation state of melanoma cells (FIG. 3). DHE is a blue-fluorescent superoxide-sensitive probe that accumulates in the cytosol of healthy cells. However, upon reaction with superoxide, DHE intercalates with DNA and forms a red-fluorescent product (2-hydroxyethidium). Therefore, the shift to red fluorescence is an indicator of the change in the redox state of the cell.
as §2
(§5) A375 cells were plated in a black, clearbottom 96 well plate at a density of 1.5×10^4 cells per well. […] Cells were analyzed using a spectrophotometer at 590 nm.

A375 melanoma cells [3] = experiment: Confocal microscopy, mitochondrial accumulation and colocalization with Mito Tracker Red; assay type: cell-based, human; settings: A375, 1 μM, 3 h
Method: as §1, §2, §3

SK-Mel-3 melanoma cells [4] = experiment: as above; assay type: cell-based, human; settings: SK-Mel-3, 1 μM, 3 h
Method: as §1, §2, §3

A375 melanoma cells [5] = experiment: DHE oxidation; assay type: cell-based, human; settings: A375, 10 μM, 1 h, normalized to untreated control
Description: as §4, §2, §5

SK-Mel-3 melanoma cells [6] = experiment: DHE oxidation; assay type: cell-based, human; settings: SK-Mel-3, 10 μM, 1 h, normalized to untreated control
Description: as §4, §2, §5

A375 melanoma cells [7] = experiment: Intracellular ATP measurement (CellTiter-Glo luciferase assay); assay type: cell-based, human; settings: 24 h; for concentration of ATP relative to the untreated control: A375, 2.5, 5.0, or 10 μM
Method: (§6) TPVP derivatives embed in the mitochondria of malignant cells and increase the oxidation state relative to NHFs. Therefore, intracellular ATP levels were measured to determine the potential impact of TPVP-based treatment on cell viability (FIG. 4). This platereader-based luciferase assay is a selective method for determining the number of viable cells by quantifying the ATP-dependent oxygenation of luciferin. […] Specifically, A375 ATP levels were depleted from 1.5 mM to less than 0.8 mM after exposure to all three compounds at 10 μM.
as §2
(§7) A375 cells were plated in 60 mm culture dishes at a density of 1.5×10^5 cells per dish. SK-Mel-3 and NHF cells were plated in 60 mm culture dishes at a density of 2.5×10^5 cells per dish. After 48 h, cells were exposed to 2.5, 5.0 or 10 μM of PTVP, DPDVP, or 18:2-TPVP for 24 h and analyzed for intracellular ATP content using the CellTiter-Glo Luminescent Cell Viability Assay (Promega).

A375 melanoma cells [8] = experiment: Clonogenic survival assay; assay type: cell-based, human; settings: 24 h; for clonogenic survival relative to the untreated control: A375, 5.0, 7.5, and 10 μM
Method: (§8) To further test the hypothesis that TPVP derivatives can be designed to decrease viability in melanoma cells relative to normal cells, clonogenic survival assays were performed (FIG. 6). The clonogenic cell survival assay is used often as a measure of the ability of cells to proliferate indefinitely. In these studies, cells were exposed to varying concentrations of TPVP derivatives for 24 h. After exposure to cytotoxic compounds, cells were collected, counted, and reseeded at a low density. The cells then undergo a series of doublings, forming cell colonies. These colonies were then counted, and the resulting cell survival curve reports the dose of the agent used to produce an insult and the fraction of cells retaining their ability to reproduce. […] Specifically, 18:2-TPVP decreases clonogenic survival to <50% at 5.0 μM for both A375 and SK-Mel-3 cells and <20% at 7.5 μM.
as §2
(§9) A375 cells were plated in 60 mm culture dishes at a density of 1.5×10^5 cells per dish. SKMel-3 and NHF cells were plated in 60 mm culture dishes at a density of 2.5×10^5 cells per dish. After 48 h, cells were treated with 1.0, 2.5, 5.0, 7.5, or 10 μM of PTVP, DPDVP, or 18:2-TPVP for 24 h. After the exposure period, cells were collected, counted, and plated at either 500 (A375 and NHF) or 3000 (SK-Mel-3) cells per 60 mm dish. Following a 2 week incubation, medium was removed and colonies fixed with ethanol and stained with Coommassie Brilliant Blue. Data were normalized to each untreated control, and the surviving fraction was reported.

SK-Mel-3 melanoma cells [9] = experiment: Clonogenic survival assay; assay type: cell-based, human; settings: 24 h; for clonogenic survival relative to the untreated control: SK-Mel-3, 5.0, 7.5, and 10 μM
Method: as §8, §2, §9

A375 melanoma cells [10] = experiment: JC-1 mitochondrial membrane potential assay; assay type: cell-based, human; settings: A375, 10 μM, 1 h
Description: (§10) JC-1 mitochondrial membrane potential assays were used to determine that TPVP derivatives are designed to accumulate in melanoma cell mitochondria and disrupt the membrane potential of melanoma cells relative to nonmalignant cells (FIG. 2).
(§11) Mitochondrial membrane potential is an important parameter of mitochondrial function. In healthy cells (with high mitochondrial potential), JC-1 spontaneously forms complexes known as J-aggregates that fluoresce in the red region. In unhealthy cells with a low mitochondria membrane potential or cells whose membrane integrity is disrupted with uncoupling agents (e.g., FCCP), JC-1 remains in the monomeric form, with fluorescence in the green region. Therefore, the ratio of Jaggregate to monomer fluorescence is an indicator of mitochondrial membrane potential and cellular health.
as §2
(§12) A375 cells were plated in a black, clear-bottom 96 well plate at a density of 1.5×10^4 cells per well. SK-Mel-3 and NHF cells were plated in a black, clear-bottom 96 well plate at a density of 2.5×10^4 cells […]. After 24 h, cells were treated with 2.5, 5.0, or 10 μM 18:2-TPVP or DPDVP for 1 h. Cells were then washed and incubated with 2.0 μM JC-1 (Cayman) in PBS containing 5 mM pyruvate (Gibco) for 1 h. Control dishes were treated with 1.0 μM FCCP (Sigma-Alrich) 30 min prior to measurement. Cells were washed and analyzed in PBS using a spectrophotometer at 530 and 590 nm.

SK-Mel-3 melanoma cells [11] = experiment: JC-1 mitochondrial membrane potential assay; assay type: cell-based, human; settings: SK-Mel-3, 10 μM, 1 h
Description: as §10, §11, §2, §12

[12] = tested on: normal human fibroblasts (NHFs); experiment: JC-1 mitochondrial membrane potential assay; assay type: cell-based; settings: 10 μM, 1 h
Description: as §10, §11
Experiments were performed using human metastatic BRAFV600E mutant A375 (ATCC CRL-1619) human melanoma cells, metastatic BRAFV600E mutant SK-Mel-3 (ATCC HTB-69) human melanoma cells isolated from a lymph node metastasis, and nonmetastatic normal human fibroblasts (NHFs) provided by the Coriell Institute (AG13442). All cells were cultured at 21% O2 at 37° C. in a humidified 5% CO2 incubator. […]
A375 cells were plated in a black, clear-bottom 96 well plate at a density of 1.5×10^4 cells per well. […] Cells were washed and analyzed in PBS using a spectrophotometer at 530 and 590 nm.

[13] = tested on: normal human fibroblasts (NHFs); experiment: Clonogenic survival assay; assay type: cell-based; settings: NHF, 5.0 μM, 24 h
Method: as §8, with “μM. […]” for “μM.”
A375 cells were plated in 60 mm culture dishes at a density of 1.5×10^5 cells per dish. […] After the exposure period, cells were collected, counted, and plated at either 500 (A375 and NHF) or 3000 (SK-Mel-3) cells per 60 mm dish. […]

SK-Mel-3 melanoma cells [14] = experiment: Intracellular ATP measurement (CellTiter-Glo luciferase assay); assay type: cell-based, human; settings: SK-Mel-3, 5.0 μM and 10 μM, 24 h
Method: as §6, §2, §7

SMILES	concentration of ATP relative to the untreated control (A375 melanoma cells [7])	clonogenic survival relative to the untreated control (A375 melanoma cells [8])	clonogenic survival relative to the untreated control (SK-Mel-3 melanoma cells [9])	decrease of JC-1 aggregate to monomer fluorescence ratio (A375 melanoma cells [10]) [%]	decrease of JC-1 aggregate to monomer fluorescence ratio (SK-Mel-3 melanoma cells [11]) [%]	decrease of JC-1 aggregate to monomer fluorescence ratio [12] [%]	other results
CCCCCCCCCC[n+]1ccc(C(=C(c2ccccc2)c2ccccc2)c2ccccc2)cc1.[Br-] [Compound 10-TPVP, 1-Decyl-4-(1,2,2-triphenylvinyl)pyridin-1-ium Bromide]							accumulation in mitochondria by confocal microscopy [1]: does not significantly accumulate; DHE fluorescence intensity [2]: does not significantly alter; accumulation in cells by confocal microscopy (A375 melanoma cells [3]): easily observable; accumulation in cells by confocal microscopy (SK-Mel-3 melanoma cells [4]): easily observable; increase of DHE oxidation (A375 melanoma cells [5]): 3 fold; increase of DHE oxidation (SK-Mel-3 melanoma cells [6]): 2 fold
CCCCCCCCCC[n+]1ccc(C(=C(c2cc[n+](CCCCCCCCCC)cc2)c2cc[n+](CCCCCCCCCC)cc2)c2ccccc2)cc1.[Br-].[Br-].[Br-] [PTVP, 4,4′,4″-(2-Phenylethene-1,1,2-triyl)tris(1-decylpyridin-1-ium) Bromide]	significantly decreases	significantly decrease	significantly decrease				
CCCCCCCCCC[n+]1ccc(C(=C(c2ccccc2)c2ccccc2)c2cc[n+](CCCCCCCCCC)cc2)cc1.[Br-].[Br-] [DPDVP, 4,4′-(2,2-Diphenylethene-1,1-diyl)bis(1-decylpyridin-1-ium) Bromide]	significantly decreases	significantly decrease	significantly decrease	50	30	10	
CCCCC/C=C\C/C=C\CCCCCCCC[n+]1ccc(C(=C(c2ccccc2)c2ccccc2)c2ccccc2)cc1.[Br-] [18:2-TPVP, 1-((9Z,12Z)-Octadeca-9,12-dien-1-yl)-4-(1,2,2-triphenylvinyl)pyridin-1-ium Bromide]	significantly decreases	significantly decrease	significantly decrease	55	40	20	clonogenic survival [13]: 75%; intracellular ATP relative to NHFs (A375 melanoma cells [7]; A375, all concentrations (1, 5, or 10 μM)): significantly decreases; intracellular ATP relative to NHFs (SK-Mel-3 melanoma cells [14]): significantly decreases; clonogenic survival (A375 melanoma cells [8]; A375, 5.0 μM): < 50% and 40%; clonogenic survival (A375 melanoma cells [8]; A375, 7.5 μM): < 20%; clonogenic survival relative to NHFs (A375 melanoma cells [8]; A375, 2.5, 5.0, 7.5, and 10 μM): significant decrease; clonogenic survival (SK-Mel-3 melanoma cells [9]; SK-Mel-3, 5.0 μM): < 50% and 30%; clonogenic survival (SK-Mel-3 melanoma cells [9]; SK-Mel-3, 7.5 μM): < 20%; clonogenic survival relative to NHFs (SK-Mel-3 melanoma cells [9]; SK-Mel-3, 2.5, 5.0, 7.5, and 10 μM): significant decrease
